pIC50: −log10 of the molar value.
Key:
ALDH1A1 = biological target: T1, ALDH1A1 (Homo sapiens, UniProt P00352); assay: Inhibition of ALDH isoenzymes (NAD(P)H formation at 340 nm, purified recombinant enzyme); format: biochemical; conditions: for pIC50: 100-200 nM enzyme, 200 μM NAD+, 100 μM propionaldehyde, pH 7.5, 25° C.; for ALDH1A1: compound is a substrate: result in words in place of IC50; for remaining activity at 20 µM: compound at 20 μM, read-out: ALDH1A1 % Control at 20 μM
T1 sequence (P00352 1-501): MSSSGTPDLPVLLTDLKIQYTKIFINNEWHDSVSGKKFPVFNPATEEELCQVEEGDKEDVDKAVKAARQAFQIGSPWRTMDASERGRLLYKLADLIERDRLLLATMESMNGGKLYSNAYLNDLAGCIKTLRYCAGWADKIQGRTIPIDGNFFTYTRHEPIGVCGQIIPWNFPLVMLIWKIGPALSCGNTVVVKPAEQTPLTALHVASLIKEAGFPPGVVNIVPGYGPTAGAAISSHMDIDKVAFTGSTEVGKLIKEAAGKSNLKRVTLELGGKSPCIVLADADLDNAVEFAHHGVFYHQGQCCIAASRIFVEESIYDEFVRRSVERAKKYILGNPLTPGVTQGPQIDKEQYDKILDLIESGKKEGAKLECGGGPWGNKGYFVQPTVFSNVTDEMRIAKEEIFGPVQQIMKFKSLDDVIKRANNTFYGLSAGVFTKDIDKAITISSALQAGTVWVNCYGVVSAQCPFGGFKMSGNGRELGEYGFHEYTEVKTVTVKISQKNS

ALDH1A2 = biological target: T2, ALDH1A2 (Homo sapiens, UniProt O94788); assay: as above; format: biochemical; conditions: for pIC50: 100-200 nM enzyme, 200 μM NAD+, 100 μM propionaldehyde, pH 7.5, 25° C.; for remaining activity at 20 µM: compound at 20 μM, read-out: ALDH1A2 % Control at 20 μM; for ALDH1A2: compound is a substrate: result in words
T2 sequence (O94788 1-518): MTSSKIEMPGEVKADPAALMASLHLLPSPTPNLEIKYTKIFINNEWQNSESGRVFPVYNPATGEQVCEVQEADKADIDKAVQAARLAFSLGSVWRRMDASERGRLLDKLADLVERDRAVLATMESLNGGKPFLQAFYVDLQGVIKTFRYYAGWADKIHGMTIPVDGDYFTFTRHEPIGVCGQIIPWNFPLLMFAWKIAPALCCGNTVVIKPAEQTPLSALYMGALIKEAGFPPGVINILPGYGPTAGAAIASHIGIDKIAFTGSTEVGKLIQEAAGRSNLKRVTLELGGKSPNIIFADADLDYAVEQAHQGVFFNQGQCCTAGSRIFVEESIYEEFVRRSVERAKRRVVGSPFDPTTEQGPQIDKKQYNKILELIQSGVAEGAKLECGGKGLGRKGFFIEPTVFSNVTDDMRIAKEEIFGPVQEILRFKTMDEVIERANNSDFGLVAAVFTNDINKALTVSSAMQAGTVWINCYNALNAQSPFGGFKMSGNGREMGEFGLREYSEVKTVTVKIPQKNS

OVSAHO = OVSAHO Cell Viability; format: cell-based; conditions: 50 μM; for OVSAHO Cell Viability (50 μM) % CD133 + % ctrl: CD133+ cells; for OVSAHO Cell Viability (50 μM) Total Cell % ctrl: total cells
ALDH2 = biological target: T3, ALDH2 (Homo sapiens, UniProt P05091); assay: Inhibition of ALDH isoenzymes (NAD(P)H formation at 340 nm, purified recombinant enzyme); format: biochemical; set-up: key to ALDH2 inhibition at 20 μM (N.I.): N.I.: No inhibition at 20 μM; conditions: compound at 20 μM; for remaining activity at 20 µM: read-out: ALDH2 % Control at 20 μM;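 on all read-outs here: run at 25 °C, started by adding substrate after 2 min preincubation, with 100-200 nM ALDH2, 200 µM NAD+, 100 µM propionaldehyde, 1% DMSO in BES buffer pH 7.5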
T3 sequence (P05091 18-517): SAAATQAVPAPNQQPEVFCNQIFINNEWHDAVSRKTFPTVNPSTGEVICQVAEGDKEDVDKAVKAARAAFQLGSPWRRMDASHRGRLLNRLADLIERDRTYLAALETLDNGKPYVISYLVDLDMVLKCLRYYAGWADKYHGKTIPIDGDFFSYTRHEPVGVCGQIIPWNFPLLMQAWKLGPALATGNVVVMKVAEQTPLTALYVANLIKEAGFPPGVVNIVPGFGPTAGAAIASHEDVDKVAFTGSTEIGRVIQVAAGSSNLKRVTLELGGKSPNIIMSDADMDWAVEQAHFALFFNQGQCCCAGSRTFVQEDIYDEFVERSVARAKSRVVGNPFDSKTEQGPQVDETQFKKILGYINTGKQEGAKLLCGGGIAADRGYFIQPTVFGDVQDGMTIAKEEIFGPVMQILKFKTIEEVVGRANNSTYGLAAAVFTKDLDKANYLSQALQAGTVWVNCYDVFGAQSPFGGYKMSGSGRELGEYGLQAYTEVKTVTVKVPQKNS

ALDH1A3 = biological target: T4, ALDH1A3 (Homo sapiens, UniProt P47895); assay: as above; format: biochemical; conditions: for pIC50: 100-200 nM enzyme, 200 μM NAD+, 100 μM propionaldehyde, pH 7.5, 25° C.; for remaining activity at 20 µM: compound at 20 μM, read-out: ALDH1A3 % Control at 20 μM
T4 sequence (P47895 1-512): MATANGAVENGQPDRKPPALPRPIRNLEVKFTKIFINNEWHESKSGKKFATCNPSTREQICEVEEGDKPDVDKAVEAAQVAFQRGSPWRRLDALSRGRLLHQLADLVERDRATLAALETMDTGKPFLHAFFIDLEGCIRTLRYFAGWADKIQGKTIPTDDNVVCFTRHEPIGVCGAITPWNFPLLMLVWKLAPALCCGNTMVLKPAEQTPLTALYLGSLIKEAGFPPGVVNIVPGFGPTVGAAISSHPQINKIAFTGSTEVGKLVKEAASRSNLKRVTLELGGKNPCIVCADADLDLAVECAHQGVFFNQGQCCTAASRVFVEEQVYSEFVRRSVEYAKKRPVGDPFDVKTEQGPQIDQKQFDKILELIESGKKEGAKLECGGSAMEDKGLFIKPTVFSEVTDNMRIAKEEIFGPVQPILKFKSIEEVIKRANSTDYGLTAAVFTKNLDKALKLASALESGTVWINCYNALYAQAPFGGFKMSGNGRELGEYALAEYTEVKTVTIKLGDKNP

| SMILES | pIC50 (ALDH1A1) | pIC50 (ALDH1A2) | OVSAHO Cell Viability (50 μM) % CD133 + % ctrl (OVSAHO) | OVSAHO Cell Viability (50 μM) Total Cell % ctrl (OVSAHO) | remaining activity at 20 µM (ALDH2) | pIC50 (ALDH1A3) | remaining activity at 20 µM (ALDH1A2) | remaining activity at 20 µM (ALDH1A3) | ALDH2 inhibition at 20 μM (N.I.) (ALDH2) | ALDH1A1: compound is a substrate (ALDH1A1) | ALDH1A2: compound is a substrate (ALDH1A2) | remaining activity at 20 µM (ALDH1A1) |
| --- | --- | --- | --- | --- | --- | --- | --- | --- | --- | --- | --- | --- |
| CCn1ncc2c(=O)n(-c3ccccc3)c(SCc3cccc(F)c3)nc21 [Example 14, 1-ethyl-6-((3-fluorobenzyl)thio)-5-phenyl-1H-pyrazolo[3,4-d]pyrimidin-4(5H)-one] | 6.49 | 6.40 | 39 % ctrl | 13 % ctrl | 82% | 6.60 | – | – | – | – | – | – |
| CCn1cc2c(=O)n(-c3ccccc3)c(SCc3cccc(F)c3)nc2n1 [Example 15, 2-ethyl-6-((3-fluorobenzyl)thio)-5-phenyl-2H-pyrazolo[3,4-d]pyrimidin-4(5H)-one] | 6.76 | 6.22 | 83 % ctrl | 51 % ctrl | 98% | 6.82 | – | – | – | – | – | – |
| Cn1ncc2c(=O)n(-c3ccccc3O)c(SCc3cccc(F)c3)nc21 [Example 33, 6-((3-fluorobenzyl)thio)-5-(2-hydroxyphenyl)-1-methyl-1H-pyrazolo[3,4-d]pyrimidin-4(5H)-one] | 5.39 | – | 92 % ctrl | 18 % ctrl | 88% | – | 92% | 100% | – | – | – | – |
| CC(C)CCSc1nc2c(cnn2C)c(=O)n1-c1ccccc1 [Example 38, 6-(isopentylthio)-1-methyl-5-phenyl-1H-pyrazolo[3,4-d]pyrimidin-4(5H)-one] | 5.92 | 6.03 | 50 % ctrl | 39 % ctrl | 96% | 6.41 | – | – | – | – | – | – |
| Cc1ccccc1-n1c(OCc2cc3ccccc3s2)nc2c(cnn2C)c1=O [Example 40, 6-(benzo[b]thiophen-2-ylmethoxy)-1-methyl-5-(o-tolyl)-1H-pyrazolo[3,4-d]pyrimidin-4(5H)-one] | 5.77 | < 5.00 | 50 % ctrl | 15 % ctrl | – | < 5.00 | – | – | N.I. | – | – | – |
| COc1cccc(CSc2nc3c(cnn3C)c(=O)n2-c2ccccc2)c1 [Example 54, 6-((3-methoxybenzyl)thio)-1-methyl-5-phenyl-1H-pyrazolo[3,4-d]pyrimidin-4(5H)-one] | 6.55 | 6.58 | – | – | 88% | 6.68 | – | – | – | – | – | – |
| Cn1ncc2c(=O)n(-c3ccccc3)c(SCc3ccccc3)nc21 [Example 55, 6-(benzylthio)-1-methyl-5-phenyl-1H-pyrazolo[3,4-d]pyrimidin-4(5H)-one] | 6.41 | 6.86 | – | – | 91% | 6.69 | – | – | – | – | – | – |
| Cn1ncc2c(=O)n(-c3ccccc3)c(SCc3cccc(C=O)c3)nc21 [Example 58, 3-(((1-methyl-4-oxo-5-phenyl-4,5-dihydro-1H-pyrazolo[3,4-d]pyrimidin-6-yl)thio)methyl)benzaldehyde] | – | 5.47 | – | – | 102% | 6.12 | – | – | – | substrate | (slow | – |
| Cn1ncc2c(=O)n(-c3ccccc3)c(SCc3ccc(C=O)cc3)nc21 [Example 59, 4-(((1-methyl-4-oxo-5-phenyl-4,5-dihydro-1H-pyrazolo[3,4-d]pyrimidin-6-yl)thio)methyl)benzaldehyde] | – | – | – | – | 89% | 6.63 | – | – | – | substrate | substrate | – |
| CC(Sc1nc2c(cnn2C)c(=O)n1-c1ccccc1)c1cccc(F)c1 (stereo not drawn) [Example 71, 6-((1-(3-fluorophenyl)ethyl)thio)-1-methyl-5-phenyl-1H-pyrazolo[3,4-d]pyrimidin-4(5H)-one] | – | – | – | – | 94% | – | -8% | -10% | – | – | – | -4% |
| Cn1ncc2c(=O)n(-c3ccccc3)c(SC3CCCCC3)nc21 [Example 72, 6-(cyclohexylthio)-1-methyl-5-phenyl-1H-pyrazolo[3,4-d]pyrimidin-4(5H)-one] | – | – | – | – | 96% | – | 34% | 24% | – | – | – | 26% |
| CC(Sc1nc2c(cnn2C2COC2)c(=O)n1-c1ccccc1)c1ccccc1 (stereo not drawn) [Example 73, 1-(oxetan-3-yl)-5-phenyl-6-((1-phenylethyl)thio)-1H-pyrazolo[3,4-d]pyrimidin-4(5H)-one] | – | – | – | – | 95% | – | 0% | 1% | – | – | – | 3% |
| CC(Sc1nc2nn(C3COC3)cc2c(=O)n1-c1ccccc1)c1ccccc1 (stereo not drawn) [Example 74, 2-(oxetan-3-yl)-5-phenyl-6-((1-phenylethyl)thio)-2H-pyrazolo[3,4-d]pyrimidin-4(5H)-one] | – | – | – | – | 96% | – | 0% | 0% | – | – | – | 3% |
| Cn1ncc2c(=O)n(-c3ccccc3)c(SC3CCCC3=O)nc21 (stereo not drawn) [Example 75, 1-methyl-6-((2-oxocyclopentyl)thio)-5-phenyl-1H-pyrazolo[3,4-d]pyrimidin-4(5H)-one] | – | – | – | – | 95% | – | 46% | 64% | – | – | – | 23% |
| Cn1ncc2c(=O)n(-c3ccccc3)c(SC3CCCCC3=O)nc21 (stereo not drawn) [Example 76, 1-methyl-6-((2-oxocyclohexyl)thio)-5-phenyl-1H-pyrazolo[3,4-d]pyrimidin-4(5H)-one] | – | – | – | – | 94% | – | 25% | 14% | – | – | – | 16% |
| Cn1ncc2c(=O)n(-c3ccccc3)c(SC(C)(C)c3ccccc3)nc21 [Example 77, 1-methyl-5-phenyl-6-((2-phenylpropan-2-yl)thio)-1H-pyrazolo[3,4-d]pyrimidin-4(5H)-one] | – | – | – | – | 102% | – | 23% | 17% | – | – | – | 22% |
